Measurements taken from patent US20210275657A1, “NEOANTIGENS AND USES THEREOF” (BioNTech US Inc., priority 2018, published 2021).
Each block holds one substance with its values, some of them ahead of it. Where no end group is shown, it is not given here.

What was measured:
indicated HLA alleles [1] = assay: Stability of mutant EGFR neopeptides with the HLA alleles; assay type: binding, human
Description: (§1) Multiple peptides containing neoepitopes in the table below were either expressed or loaded onto antigen presenting cells. Mass spectrometry was then performed and the affinity of the neoepitopes for indicated HLA alleles were determined, and the stability of the neoepitopes with the HLA alleles were determined.

indicated HLA alleles [2] = assay: Affinity of mutant EGFR neopeptides for indicated HLA alleles; assay type: binding, human
HLA-B07:02 [3] = biological target: T1, HLA-B07:02 (Homo sapiens, UniProt P01889); assay: Detection of GATA3 neoORF peptides by mass spectrometry (Example 8); assay type: cell-based; conditions: 293T cells transduced with GATA3 neoORF lentiviral vector, expressing HLA-B07:02; eluted peptides, MS/MS
HLA-B07:02 [4] = biological target: T1, HLA-B07:02; assay: Affinity measurements, competition with radiolabeled peptide (Example 20); assay type: binding
indicated HLA alleles [5] = biological target: indicated HLA alleles (Homo sapiens, UniProt P01889); assay: Affinity of GATA3 neoORF neoepitopes for the indicated HLA alleles (Example 9, Table 4); assay type: binding
Description: (§2) Multiple peptides containing the neoepitopes in Table 4 below were expressed or loaded onto antigen presenting cells (APCs). Mass spectrometry was then performed and the affinity of the neoepitopes for the indicated HLA alleles and stability of the neoepitopes with the HLA alleles was determined.

indicated HLA alleles [6] = assay: Stability of GATA3 neoORF neoepitopes with the HLA alleles (Example 9, Table 4); assay type: binding, human
Description: as §2

HLA-B07:02 [7] = biological target: T1, HLA-B07:02; assay: Stability measurements, pMHC-I dissociation with 125I light chain (Example 20); assay type: binding
Description: To measure the binding stability of peptides to Class I MHC, synthetic genes encoding biotinylated MHC-I heavy and light chains are expressed in E. coli and purified from inclusion bodies using standard methods. […] These reactions were carried out in streptavidin coated microplates to bind the biotinylated MHC-I heavy chains to the surface and allow measurement of radiolabeled light chain to monitor complex formation. Dissociation was initiated by addition of higher concentrations of unlabeled light-chain and incubation at 37° C. Stability was defined as the length of time in hours it takes for half of the complexes to dissociate, as measured by scintillation counts. Duplicate measurements were performed. The average of the two measurements was taken as the stability.

indicated HLA alleles [8] = assay: Affinity of GATA3 neoORF neoepitopes for the indicated HLA alleles (Example 9, Table 4); assay type: binding, human; conditions: read-out: Observed MHC affinity
Description: as §2

HLA-A02:01 = HLA-A02:01 (Homo sapiens, UniProt P04439, D140Y/D185E/D98H/E176V/E277Q/G131W/G231S/I119V/I121R/I166T/I218V/L300P/L318F/N151K/N90K/P208A/P217A/Q86G/Q94H/R138H/R169H/T345S); assay: Detection of GATA3 neoORF peptides by mass spectrometry (Example 8); assay type: cell-based; conditions: 293T cells transduced with GATA3 neoORF lentiviral vector, expressing HLA-A02:01; peptides eluted from HLA-peptide complexes, MS/MS
[9] = tested on: antigen specific CD8+ T cells; assay: Antigen specific CD8+ T cell induction monitored with pMHC multimers (Example 10); assay type: cell-based, human; conditions: PBMCs from 3 different healthy donors
Description: PBMC samples from a human donor were used to perform antigen specific T cell induction. CD8^+ T cell inductions were analyzed after manufacturing T cells. Cell samples can be taken out at different time points for analysis. pMIHC multimers were used to monitor the fraction of antigen specific CD8^+ T cells in the induction cultures. […] FIG. 9A depicts an exemplary result of a T cell response assay using PBMCs from 6 different healthy donors showing the fraction of antigen specific CD8^+ T cells that responded to […] peptide analyzed by flow cytometry after stimulation or induction. […] FIG. 9B depicts an exemplary result of a T cell response assay using PBMCs from a healthy donor showing fraction of antigen specific CD8^+ T cells that responded to […] peptide analyzed by flow cytometry after stimulation or induction.

indicated HLA alleles [10] = biological target: T2, indicated HLA alleles (Homo sapiens, UniProt P04439); assay: Affinity of GATA3 neoORF neoepitopes for the indicated HLA alleles (Example 9, Table 4); assay type: binding
Description: as §2

indicated HLA alleles [11] = assay: Affinity of mutant BTK neopeptides for indicated HLA alleles; assay type: binding, human
Description: as §1

indicated HLA alleles [12] = assay: Stability of mutant BTK neopeptides with the HLA alleles; assay type: binding, human
Description: as §1

indicated HLA alleles [13] = biological target: T2, indicated HLA alleles; assay: Affinity of mutant BTK neopeptides for indicated HLA alleles; assay type: binding
Description: as §1

indicated HLA alleles [14] = biological target: T2, indicated HLA alleles; assay: Stability of mutant BTK neopeptides with the HLA alleles; assay type: binding; conditions: BTK, C481S; HLA A03.01
Description: as §1

[15] = ovarian carcinoma patients, poly-ICLC with NYESO-1 peptide vaccine (in addition to Montanide), phase 1 study; cited from earlier work

Kd (indicated HLA alleles [2]; EGFR_T790M, HLA A02.01): 1210 nM
Substance: IMQLMPFGC
Stability (1/2 hr) (indicated HLA alleles [1]; EGFR_T790M, HLA A02.01): 0.3701 h

Substance: KPKRDGYMFL
detected by mass spectrometry (HLA-B07:02 [3]): detected
IC50 (HLA-B07:02 [4]): 115 nM
Kd (indicated HLA alleles [5]): 98 nM
Observed MHC stability (indicated HLA alleles [6]; Allele B07:02): 3.3 h
Experiment 1 half-life (HLA-B07:02 [7]): 3.3 h
Experiment 2 half-life (HLA-B07:02 [7]): 3.3 h
Average half-life (HLA-B07:02 [7]; average of experiments 1 and 2): 3.3 h

Kd (indicated HLA alleles [2]; EGFR_T790M, HLA A02.01): 3340 nM
Substance: LIMQLMPFG
Stability (1/2 hr) (indicated HLA alleles [1]; EGFR_T790M, HLA A02.01): 0 h

Substance: LTSTVQLIM
Stability (1/2 hr) (indicated HLA alleles [1]; EGFR T790M, HLA A01.01): 0.1037 h
Kd (indicated HLA alleles [2]; EGFR T790M, HLA A01.01): 2890 nM

Kd (indicated HLA alleles [8]; Allele A24:02): 332 nM
Substance: MFLKAESKI
Observed MHC stability (indicated HLA alleles [6]; Allele A24:02): 0.2 h

Substance: QPVLWTTPPL
Kd (indicated HLA alleles [5]): 109 nM
Observed MHC stability (indicated HLA alleles [6]; Allele B07:02): 1.4 h

Substance: STVQLIMQL
Stability (1/2 hr) (indicated HLA alleles [1]; EGFR_T790M, HLA A02.01): 0 h
Kd (indicated HLA alleles [2]; EGFR_T790M, HLA A02.01): 7260 nM

detected by mass spectrometry (HLA-A02:01): detected
Kd (indicated HLA alleles [8]; Allele A02.01): 16 nM
Substance: VLPEPHLAL [VLPEPHLAL]
healthy donors showing an increase in the fraction of antigen specific CD8+ T cells [9]: one of the three donors
Observed MHC stability (indicated HLA alleles [6]; Allele A02.01): 1.1 h

Substance: VLWTTPPLQH
Kd (indicated HLA alleles [8]; Allele A11:01): 4540 nM
Kd (indicated HLA alleles [10]): 16 nM
Observed MHC stability (indicated HLA alleles [6]; Allele A03:01): 0.3 h
Observed MHC stability (indicated HLA alleles [6]; Allele A11:01): 0 h

Kd (indicated HLA alleles [11]; BTK_C481S, HLA A02.01): 4000 nM
Substance: YMANGSLLN
Stability (1/2 hr) (indicated HLA alleles [12]; BTK_C481S, HLA A02.01): 0 h

Substance: YMANGSLLNY
Kd (indicated HLA alleles [11]; BTK, C481S, HLA A01.01): 13.2 nM
Kd (indicated HLA alleles [11]; BTK, C481S, HLA A11.01): 974 nM
Kd (indicated HLA alleles [13]): 95.9 nM
Stability (1/2 hr) (indicated HLA alleles [12]; BTK, C481S, HLA A01.01): 0.8662 h
Stability (1/2 hr) (indicated HLA alleles [14]): 0.2791 h

Substance: poly-ICLC
patients showing induction of CD4+ and CD8+ T cell and antibody responses to the peptide [15]: > 90%
